Key:
BTK = biological target: T1, BTK (Homo sapiens, UniProt Q06187); test: BTK degradation activity test in Mino cells; assay type: cell-based; details: 16 h incubation, Western blot or Elisa
T1 construct: endogenous in cells; host or cells: Mino cells
Summary of the method: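 Mino cells treated with a concentration series of compound for 16 h, then lysed; total protein by BCA. BTK quantified by Western blot or ELISA, degradation rate calculated against blank control, and DC50 fitted from the degradation curve.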

OCI-LY10 cells = test: Inhibitory activity on OCI-LY10 cell proliferation (MTS); assay type: cell-based; details: Homo sapiens, 72 h
Summary of the method: (§1)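 Cells seeded at 10000/well, treated with compounds from 1000 nM (4-fold, 8 points) for 72 h (OCI-LY10) or 168 h (Mino) at 37° C. MTS added for 2 h, stopped with SDS, absorbance read at 490 and 650 nm; IC50 from dose-response fit.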

Mino cells = test: Inhibitory activity on Mino cell proliferation (MTS); assay type: cell-based; details: Homo sapiens, 168 h incubation
Summary of the method: as §1

[1] = Stability of compounds in human liver microsome; assay type: in vitro ADME; details: human liver microsomes, NADPH, 37° C., sampling 0-120 min; read-out: Human liver microsome T1/2
Protocol: Compound to be tested: the compound to be tested (1 mg) was dissolved in DMSO (10 mL) to formulate to 0.1 mg/mL.
Internal standard compound: the internal standard compound (1 mg) was dissolved in DMSO (10 mL), 10 μL was taken and diluted to 10 mL to formulate to 100 ng/mL.
NADPH solution: NADPH (2.08 mg) was dissolved in PBS (50 μL) buffer to formulate to 50 mM.
Under the condition of ice bath, 1 mg of human liver microparticles was add to PBS (1 mL) buffer, then NADPH (20 μL) was added, and incubated at 37° C. for 5 min. 10 μL of the compound to be tested was added, and then samples were taken at 0, 15, 30, 60 and 120 min respectively. 10 μL of the solution was taken with a pipette each time and added to 490 μL of the solution containing the internal standard compound. The resulting solution was vortexed and then placed on ice, and then sampling at another time point continues. All samples were centrifuged at 10,000 rpm for 10 min, and the supernatant was taken for LC/MS testing. The metabolism of the compound in liver microsomes was calculated based on the peak area.

T1 sequence (Q06187 whole entry): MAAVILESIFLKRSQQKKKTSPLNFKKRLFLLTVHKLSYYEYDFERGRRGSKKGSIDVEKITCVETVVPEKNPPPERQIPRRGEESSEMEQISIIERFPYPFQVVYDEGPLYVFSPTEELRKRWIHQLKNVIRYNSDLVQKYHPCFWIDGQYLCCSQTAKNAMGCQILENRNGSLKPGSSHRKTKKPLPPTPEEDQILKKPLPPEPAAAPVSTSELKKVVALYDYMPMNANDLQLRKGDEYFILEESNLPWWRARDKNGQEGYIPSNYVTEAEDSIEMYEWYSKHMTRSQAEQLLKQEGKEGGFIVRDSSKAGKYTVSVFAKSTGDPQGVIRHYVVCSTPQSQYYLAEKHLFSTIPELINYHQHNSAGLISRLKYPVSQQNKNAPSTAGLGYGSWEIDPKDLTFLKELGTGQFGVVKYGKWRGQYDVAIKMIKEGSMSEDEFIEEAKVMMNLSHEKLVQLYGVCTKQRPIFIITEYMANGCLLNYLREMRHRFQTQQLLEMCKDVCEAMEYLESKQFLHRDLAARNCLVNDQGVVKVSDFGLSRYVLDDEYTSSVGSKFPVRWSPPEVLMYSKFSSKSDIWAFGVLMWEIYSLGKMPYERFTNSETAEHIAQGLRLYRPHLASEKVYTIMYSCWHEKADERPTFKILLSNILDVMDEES

| SMILES | DC50 (BTK) [nM] | IC50 (OCI-LY10 cells) [nM] | half-life at 0.97 µg/mL [1] [min] | IC50 (Mino cells) [nM] |
| --- | --- | --- | --- | --- |
| CN1CCN([C@@H]2CCCN(c3nnc(C(N)=O)c(Nc4ccc(C5CCN(CC6CCN(c7ccc8c(c7)C(=O)N(C7CCC(=O)NC7=O)C8=O)C6)CC5)c(F)c4)n3)C2)C1=O (stereo partly drawn) [Compound 128, 5-((4-(1-((1-(2-(2,6-dioxopiperidin-3-yl)-1,3-dioxoisoindolin-5-yl)pyrrolidin-3-yl)methyl)piperidin-4-yl)-3-fluorophenyl)amino)-3-((R)-3-(3-methyl-2-oxoimidazolin-1-yl)piperidin-1-yl)-1,2,4-triazin-6-carboxamide] | < 1 | 0.37 | 43.2 | 1.93 |
| CN1CCN([C@@H]2CCCN(c3nnc(C(N)=O)c(Nc4ccc(N5CCN(CC6CCN(c7ccc8c(c7)C(=O)N(C7CCC(=O)NC7=O)C8=O)C6)CC5)c(Cl)c4)n3)C2)C1=O (stereo partly drawn) [Compound 133, 5-((3-chloro-4-(4-((1-(2-(2,6-dioxopiperidin-3-yl)-1,3-dioxoisoindolin-5-yl)pyrrolidin-3-yl)methyl)piperazin-1-yl)phenyl)amino)-3-((R)-3-(3-methyl-2-oxoimidazolin-1-yl)piperidin-1-yl)-1,2,4-triazin-6-carboxamide] | < 1 | 0.43 | 31.7 | 3.91 |
| NC(=O)c1nnc(N2CCC[C@@H](N3C(=O)CCC3=O)C2)nc1Nc1ccc(C2CCN(CC3CCN(c4ccc5c(c4)C(=O)N(C4CCC(=O)NC4=O)C5=O)CC3)CC2)cc1 (stereo partly drawn) [Compound 135, 5-((4-(1-((1-(2-(2,6-dioxopiperidin-3-yl)-1,3-dioxoisoindolin-5-yl)piperidin-4-yl)methyl)piperidin-4-yl)phenyl)amino)-3-((R)-3-(2,5-dioxopyrrolidin-1-yl)piperidin-1-yl)-1,2,4-triazin-6-carboxamide] | < 1 | 0.11 | 25 | 1.36 |
| NC(=O)c1nnc(N2CCC[C@@H](N3C(=O)CCC3=O)C2)nc1Nc1ccc(C2CCN(CC3CCN(c4ccc5c(c4)C(=O)N(C4CCC(=O)NC4=O)C5=O)C3)CC2)cc1 (stereo partly drawn) [Compound 136, 5-((4-(1-((1-(2-(2,6-dioxopiperidin-3-yl)-1,3-dioxoisoindolin-5-yl)pyrrolidin-3-yl)methyl)piperidin-4-yl)phenyl)amino)-3-((R)-3-(2,5-dioxopyrrolidin-1-yl)piperidin-1-yl)-1,2,4-triazin-6-carboxamide] | < 1 | 0.79 | 24 | 1.61 |

Further lines, with some results ahead:

| DC50 (BTK) [nM] | IC50 (OCI-LY10 cells) [nM] | half-life at 0.97 µg/mL [1] [min] | SMILES | IC50 (Mino cells) [nM] |
| --- | --- | --- | --- | --- |
| < 1 | 0.25 | 20 | CN1C(=O)N([C@@H]2CCCN(c3nnc(C(N)=O)c(Nc4ccc(C5CCN(CC6CCN(c7ccc8c(c7)C(=O)N(C7CCC(=O)NC7=O)C8=O)C6)CC5)cc4)n3)C2)C(=O)C12CC2 (stereo partly drawn) [Compound 137, 5-((4-(1-((1-(2-(2,6-dioxopiperidin-3-yl)-1,3-dioxoisoindolin-5-yl)pyrrolidin-3-yl)methyl)piperidin-4-yl)phenyl)amino)-3-((R)-3-(4-methyl-5,7-dioxo-4,6-diazaspiro[2.4]heptan-6-yl)piperidin-1-yl)-1,2,4-triazin-6-carboxamide] | 3.92 |
| < 1 | 0.47 | 26.3 | NC(=O)c1nnc(N2CCC[C@@H](N3CCN(CC(F)(F)F)C3=O)C2)nc1Nc1ccc(C2CCN(CC3CCN(c4ccc5c(c4)C(=O)N(C4CCC(=O)NC4=O)C5=O)C3)CC2)cc1 (stereo partly drawn) [Compound 140, 5-((4-(1-((1-(2-(2,6-dioxopiperidin-3-yl)-1,3-dioxoisoindolin-5-yl)pyrrolidin-3-yl)methyl)piperidin-4-yl)phenyl)amino)-3-((R)-3-(2-oxo-3-(2,2,2-trifluoroethyl)imidazolin-1-yl)piperidin-1-yl)-1,2,4-triazin-6-carboxamide] | 3.46 |
| < 1 | 0.33 | 39.1 | NC(=O)c1nnc(N2CC3CC(N4C(=O)c5ccccc5C4=O)C2C3)nc1Nc1ccc(C2CCN(CC3CCN(c4ccc5c(c4)C(=O)N(C4CCC(=O)NC4=O)C5=O)CC3)CC2)cc1 (centres unmarked) [Compound 143, 3-(6-(1,3-dioxoisoindolin-2-yl)-2-azabicyclo[2.2.1]heptan-2-yl)-5-((4-(1-((1-(2-(2,6-dioxopiperidin-3-yl)-1,3-dioxoisoindolin-5-yl)piperidin-4-yl)methyl)piperidin-4-yl)phenyl)amino)-1,2,4-triazin-6-carboxamide] | 3.08 |
| < 1 | 3.49 | 146 | NC(=O)c1nnc(N2CC3CC(N4C(=O)c5ccccc5C4=O)C2C3)nc1Nc1ccc(C2CCN(CC3CCN(c4ccc5c(c4)C(=O)N(C4CCC(=O)NC4=O)C5=O)C3)CC2)cc1 (centres unmarked) [Compound 144, 3-(6-(1,3-dioxoisoindolin-2-yl)-2-azabicyclo[2.2.1]heptan-2-yl)-5-((4-(1-((1-(2-(2,6-dioxopiperidin-3-yl)-1,3-dioxoisoindolin-5-yl)pyrrolidin-3-yl)methyl)piperidin-4-yl)phenyl)amino)-1,2,4-triazin-6-carboxamide] | 3.49 |
| < 1 | 1.48 | > 30 | CN1CCN([C@@H]2CCCN(c3nnc(C(N)=O)c(Nc4ccc(N5CCN(CC6CCN(c7ccc(N8CCC(=O)NC8=O)cc7)C6)CC5)c(F)c4)n3)C2)C1=O (stereo partly drawn) [Compound 147, 5-((4-(4-((1-(4-(2,4-dioxotetrahydropyrimidin-1(2H)-yl)phenyl)pyrrolidin-3-yl)methyl)piperazin-1-yl)-3-fluorophenyl)amino)-3-((R)-3-(3-methyl-2-oxoimidazolin-1-yl)piperidin-1-yl)-1,2,4-triazin-6-carboxamide] | 0.54 |
| < 1 | 3.21 | > 30 | CN1CCN([C@@H]2CCCN(c3nnc(C(N)=O)c(Nc4ccc(N5CCN(CC6CCN(C(=O)c7ccc(F)c(N8CCC(=O)NC8=O)c7)C6)CC5)c(F)c4)n3)C2)C1=O (stereo partly drawn) [Compound 148, 5-((4-(4-((1-(3-(2,4-dioxotetrahydropyrimidin-1(2H)-yl)-4-fluorobenzoyl)pyrrolidin-3-yl)methyl)piperazin-1-yl)-3-fluorophenyl)amino)-3-((R)-3-(3-methyl-2-oxoimidazolin-1-yl)piperidin-1-yl)-1,2,4-triazin-6-carboxamide] | 7.79 |
| < 1 | 2.6 | > 30 | COc1ccc(C(=O)N2CCC(CN3CCN(c4ccc(Nc5nc(N6CCC[C@@H](N7CCN(C)C7=O)C6)nnc5C(N)=O)cc4F)CC3)C2)cc1N1CCC(=O)NC1=O (stereo partly drawn) [Compound 149, 5-((4-(4-((1-(3-(2,4-dioxotetrahydropyrimidin-1(2H)-yl)-4-methoxybenzoyl)pyrrolidin-3-yl)methyl)piperazin-1-yl)-3-fluorophenyl)amino)-3-((R)-3-(3-methyl-2-oxoimidazolin-1-yl)piperidin-1-yl)-1,2,4-triazin-6-carboxamide] | 8.89 |
